Data set [1] deals with patients with fresh myocardial infarction. In kind it is in vivo, human (patients). On the procedure: V. A preliminary clinical study was conducted on 100 patients with fresh myocardial infarction who had to fulfill the following criteria for admission: typical history of chest pain, with onset of less than six hours duration and having anterior or anteroseptal transmural myocardial infarction evidenced by 12 leads EKG criteria. 50 patients received the usual conventional drugs advocated in the hospital where the study was undertaken (potent analgesic, nitroglycerin, diuretics, lidocain, digitalis) and served as a comparison or control group. The other 50 patients received the conventional drugs and in addition calcium dobesilate which was given as follows: 100 mg/kg of calcium dobesilate by i.v. perfusion in 300 ml glucose, on admission 50-100 mg/kg of calcium dobesilate by i.v. perfusion in 300 ml glucose every hour during the subsequent 3 hours 25 mg/kg of calcium dobesilate by i.v. perfusion in 300 ml glucose every 6 hours until the 3rd-4th day after admission The treatment was then continued, by giving 500-1,000 mg of calcium dobesilate orally thrice daily.

In data set [2] the test system is dogs with experimental myocardial infarction. Nature of the data set: electrocardiographic tracings in dogs after coronary artery ligation (second study). In kind it is in vivo, mongrel dogs. The following applies: group III treated dogs, 360 min, 100 mg/kg i.v. On the procedure: In 7 dogs the coronary artery was occluded and lymphangiography was performed post-mortem 30 minutes after the occlusion (group II). In 6 other dogs the coronary artery was occluded and lymphangiography was performed 360 minutes after coronary artery occlusion (group III). An additional 12 dogs were treated with CLS 2210 (calcium dobesilate) in a single dose of 100 mg/kg by intravenous infusion immediately after coronary artery occlusion. In 6 of these dogs, post-mortem lymphangiography was performed 30 minutes following coronary artery occlusion (group II), and in the other 6 it was performed 360 minutes after occlusion (group III).

The test system of another data set is microvessels. The following applies: cited from earlier work.
For the next data set, the system named is rabbit ear. The following applies: Roskam's method; U.S. Pat. No. 3,509,207; cited from earlier work.
The next data set can be described thus: acute toxicity study. To be noted: in vivo, mice and rats.
[3] abbreviates: compared to controls (FIGS. 1-3).

Structures are written as SMILES.

As for `O=S(=O)(O)c1cc(O)ccc1O` [calcium dobesilate, calcium 2,5-dihydroxybenzenesulfonate], the “precordial ST-segment elevation” value in data set [1] (EKG tracings, compared to controls) is “rapid and much greater decrease”. In data set [1] (compared to control group, i.v. then oral, added to conventional drugs), the “consumption of conventional drugs (analgesic, nitroglycerin, diuretic, lidocain and digitalis)” value is “considerably reduced”. In addition, in data set [1] (compared to controls), the chest pain result is given as “much less”. For the same compound, in data set [1] (setting [3]), the “serum levels of CPK” value is listed as “significant reduction”, the “serum levels of LDH” value is on record as “significant reduction” and the “serum levels of SGOT” value is “significant reduction”. This compound also came in with a short-term mortality in data set [1] (controls 15%) of 2%. Moreover, in data set [1] (controls average 7 days), the “mobilisation of patients (average)” value was 4 days. In data set [1] (human, in vivo), the side-effects entry is “no side-effects” and the tolerability result was “well tolerated”. The ST-segment elevation entry in data set [2] is listed as “a fall in the ST-segment elevation”. In addition, in the data set with microvessels, the anti-oedema effect entry was “anti-oedema”; the “capillary fragility and permeability” value was “reducing”; the viscosity lowering effect entry is given as “viscosity lowering effect”. The “mean bleeding time of the rabbit ear” value in the data set with rabbit ear is recorded as “reduce”. Moreover, the LD50 in “acute toxicity study” (intravenous) stood at 750 mg/kg. In the data set “acute toxicity study” (oral), this compound registered an LD50 of more than 4000 mg/kg.

Values taken from patent US4513007A, “Method for treating heart disease” (priority 1983, dated 1985).
